Earlier results as cited in PMC8711562 (Drug Design, Development and Therapy, 2021).

Tested on: gastric pH
Details: beagles

COc1ccc2[nH]c([S+]([O-])Cc3ncc(C)c(OC)c3C)nc2c1 (stereo not shown) [Omeprazole]
gastric pH elevated to: 6
